Experimental data as given in US20260335263A1, “USE OF TROPIC ACID AND DERIVATIVE THEREOF IN PREPARATION OF DRUG FOR TREATING PSORIASIS” (GUANGDONG PHARMACEUTICAL UNIVERSITY, priority 2022, published 2026).

How the values were obtained:
[1] = Solubility observed in structural identification; format: physicochemical
[2] = system: Psoriasis in Mice Induced by Imiquimod; experiment: Histomorphological observation (PASI scoring and day 7 photographs of back skin lesions) of psoriasis in mice induced by imiquimod; format: in vivo, male Balb/c mice; details: for skin lesion scores (overall score), high-dose: vs high-dose tropic acid, compound III P<0.01, compound IV P<0.05; for skin erythema score, low-dose / skin lesion scores (overall score), low-dose: low-dose 3 mg/kg·d by gavage; for skin erythema score, low-dose: compared with low-dose tropic acid, P<0.01; for skin lesion scores (overall score), low-dose: vs low-dose tropic acid; for therapeutic effect on back skin injury induced by imiquimod: overall conclusion, mouse model of psoriasis; for therapeutic effects compared with tropic acid: summary statement
Source text: 110 male Balb/c mice (8-10 weeks, 20-25 g each) were anesthetized by intraperitoneal injection of 10% chloral hydrate, and approximately 2 cm×4 cm of back hair was shaved off. The mice were randomly divided into 11 groups, with 10 mice in each group, including a blank control group, a model group, a positive drug group, a high-dose tropic acid group (A), a low-dose tropic acid group (B), a high-dose 4-hydroxy-α-(hydroxymethyl)phenylacetic acid group (C), a low-dose 4-hydroxy-α-(hydroxymethyl)phenylacetic acid group (D), a high-dose 3,4-dihydroxy-α-(hydroxymethyl)phenylacetic acid group (E), a low-dose 3,4-dihydroxy-α-(hydroxymethyl)phenylacetic acid group (F), a high-dose 3,4,5-trihydroxy-α-(hydroxymethyl)phenylacetic acid group (G), and a low-dose 3,4,5-trihydroxy-α-(hydroxymethyl)phenylacetic acid group (H) of. Except for the blank control group, which received no treatment, all other groups were treated with 50 mg of 5% imiquimod cream daily to prepare a psoriasis mouse model. All groups were administered simultaneously, with dosing twice daily, and the grouping and dosing regimen are detailed in Table 1. The treatment was continued for 6 days. On the 7th day, the skin lesions of the mice were photographed and recorded, after which the mice were euthanized and their back skin was taken for further use.
Histomorphological observation: Starting from the first day of modeling, the degree of erythema, scales, and inflammatory infiltration thickening on the back of mice were scored daily according to the PASI scoring criteria. The PAIS scoring criteria were as follows: 0-none; 1-mild; 2-moderate; 3-severe cases; 4-extremely severe. The more severe the degree of skin damage, the higher the score. The three points were summed to obtain the total PASI score. The average score of each group of mice were then plotted to create a trend line to observe the changes in skin lesions of each group of mice. Digital photography was used to record the skin lesions on the back of the mice in each group on the 7th day for observation and comparison.

[3] = system: Psoriasis in Mice Induced by Imiquimod; experiment: Histopathological examination (HE staining, epidermal thickness) of back skin of mice with imiquimod-induced psoriasis; format: in vivo, male Balb/c mice; details: day 7, HE staining, compared with the model group
Source text: 110 male Balb/c mice (8-10 weeks, 20-25 g each) were anesthetized by intraperitoneal injection of 10% chloral hydrate, and approximately 2 cm×4 cm of back hair was shaved off. […] On the 7th day, the skin lesions of the mice were photographed and recorded, after which the mice were euthanized and their back skin was taken for further use.
Histopathological examination: On the 7th day of modeling, the mice were euthanized, and the back skin of each group of mice was cut and fixed in 4% paraformaldehyde for 24 hours, embedded in paraffin, and sliced into 4 μm sections. HE staining, sealing, and observation of histopathological changes under microscope were performed, and the epidermal thickness was measured using the scale function of the cellSens standard.

[4] = high-dose 6 mg/kg·d by gavage, after 6 days, compared with high-dose tropic acid, P<0.05

O=C(O)C(CO)c1ccc(O)c(O)c1 (stereo not drawn) [compound III, 3,4-dihydroxy-α-(hydroxymethyl)phenylacetic acid]
solubility in methanol ([1]; methanol): easily soluble
solubility in water ([1]; water): easily soluble
degree of inflammatory infiltration and thickening of the skin [2, 4]: significant decrease
degree of scale reduction [2, 4]: superior
skin erythema score, high-dose [2, 4]: significantly reduced
skin lesion scores (overall score), high-dose ([2]; high-dose 6 mg/kg·d by gavage): superior
skin erythema score, low-dose ([2]; after 6 days): significantly reduced
skin lesion scores (overall score), low-dose ([2]; P<0.05): superior
therapeutic effect on back skin injury induced by imiquimod [2]: best therapeutic effect
therapeutic effects compared with tropic acid [2]: more significant therapeutic effects than tropic acid

C[C@@H]1C[C@H]2[C@@H]3CCC4=CC(=O)C=C[C@]4(C)[C@@]3(F)[C@@H](O)C[C@]2(C)[C@@]1(O)C(=O)CO [positive drug, dexamethasone]
incomplete skin keratinization [3]: significantly improvements
thickness of the stratum spinosum ([3]; positive drug = dexamethasone 5 mg/kg·d by gavage): significantly reduced

O=C(O)C(CO)c1cc(O)c(O)c(O)c1 (stereo not drawn) [compound IV, 3,4,5-trihydroxy-α-(hydroxymethyl)phenylacetic acid]
degree of inflammatory infiltration and thickening of the skin [2, 4]: significant decrease
degree of scale reduction [2, 4]: superior
skin lesion scores (overall score), high-dose ([2]; high-dose 6 mg/kg·d by gavage): superior
skin erythema score, low-dose ([2]; after 6 days): significantly reduced
skin lesion scores (overall score), low-dose ([2]; P<0.05): superior
therapeutic effect on back skin injury induced by imiquimod [2]: best therapeutic effect
therapeutic effects compared with tropic acid [2]: more significant therapeutic effects than tropic acid
